Data on 34 compounds can be found in EP3305781A1, “CHEMICAL SUBSTANCES WHICH INHIBIT THE ENZYMATIC ACTIVITY OF HUMAN KALLIKREIN-RELATED PEPTIDASE 6 (KLK6)” (Deutsches Krebsforschungszentrum, priority 2016, dated 2018).

Usually pIC50 stands for −log10 of the IC50, conventionally taken in molar units.

Experiment in all cases: Biochemical inhibition assay, fluorogenic substrate FSR-AMC
The target in experiment [1] is Thrombin (Homo sapiens, UniProt P00734).
Experimental: (§1) In a 384 well plate, 5 µL of eleven concentrations of inhibitor in 8% DMSO (serial dilution 2:1) and a blank were incubated with an equal amount of enzyme (KLK6, Thrombin, Trypsin or Factor Xa) diluted in 50 mM Tris pH 7.5, 150 mM NaCl, 1 mM EDTA, 0.05% Tween20 assay buffer for 30 minutes. […] Inhibition of the enzyme as a function of the inhibitor concentration was used to generate dose response curves, which allowed estimating IC50 values, according to the following equation in GraphPad Prism: y = ymin + (ymax−ymin)/(1+10^(((LogIC50−x)*HillSlope))) [formula]
(§2) Assay final concentrations: • KLK6: 5 nM • Trypsin: 0.88 ng/mL • Thrombin: 9.8·10^-5 NIH unit/mL • Factor Xa: 4 nM • FSR-AMC: 20 µM
The target in experiment [2] is Trypsin (Homo sapiens, UniProt P07477).
Experimental: as §1, §2
Experiment [3] concerns the target Factor Xa (Homo sapiens, UniProt P00742).
Experimental: as §1, §2
Experiment [4] deals with KLK6 (Homo sapiens, UniProt Q92876).
Experimental: as §1, §2
Setting [5] is: read-out: Thrombin IC50, Thrombin 9.8·10^-5 NIH unit/mL, 30 min incubation with inhibitor, FSR-AMC 20 µM, Tris pH 7.5.
The mark [6] stands for this setting: read-out: Trypsin IC50, Trypsin 0.88 ng/mL, 30 min incubation with inhibitor, FSR-AMC 20 µM, Tris pH 7.5.
[7] abbreviates: read-out: Factor Xa IC50, Factor Xa 4 nM, 30 min incubation with inhibitor, FSR-AMC 20 µM, Tris pH 7.5.
Where [8] appears, read: read-out: KLK6 IC50, KLK6 5 nM (produced in insect cells), 30 min incubation with inhibitor, FSR-AMC 20 µM, Tris pH 7.5.

pIC50: −log10 of the molar value. Where two headings read alike, the source gives them in different places.

Factor Xa, sequence (P00742 235-488 limits assumed): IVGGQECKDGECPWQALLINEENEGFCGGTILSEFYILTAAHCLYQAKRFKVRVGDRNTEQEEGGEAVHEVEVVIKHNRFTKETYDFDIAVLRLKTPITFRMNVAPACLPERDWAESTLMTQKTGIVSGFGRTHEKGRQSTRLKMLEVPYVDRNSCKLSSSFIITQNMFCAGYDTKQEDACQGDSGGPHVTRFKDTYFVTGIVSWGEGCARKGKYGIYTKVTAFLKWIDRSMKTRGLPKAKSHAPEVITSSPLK
Factor Xa, sequence (P00742 41-179 partner limits assumed): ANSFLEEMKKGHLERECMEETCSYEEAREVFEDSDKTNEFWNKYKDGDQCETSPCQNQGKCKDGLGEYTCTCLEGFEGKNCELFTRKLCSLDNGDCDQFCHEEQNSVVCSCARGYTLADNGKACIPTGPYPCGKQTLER

Take `Cc1nn(-c2ccccc2)c(C)c1NC(=O)COC(=O)Cc1cn(C)c2ccccc12` [compound 18]: the pIC50 was less than 3.70 in experiment [1] (setting [5]), 3.83 in experiment [2] (setting [6]), 4.30 in experiment [3] (setting [7]) and 4.94 in experiment [4] (setting [8]).

`Cc1nn(-c2ccccc2)c(C)c1NC(=O)COC(=O)Cc1ccco1` [compound 68]: the pIC50 in experiment [1] (setting [5]) was less than 3.70; in experiment [2] (setting [6]) it was less than 3.70; in experiment [3] (setting [7]), less than 3.70; in experiment [4] (setting [8]) it was 4.34.

As to `COc1ccc(CC(=O)OCC(=O)Nc2c(C)nn(-c3ccccc3)c2C)cc1` [compound 52], the negative-log IC50 (pIC50) is less than 3.70 in experiment [1] (setting [5]), less than 3.70 in experiment [2] (setting [6]), less than 3.70 in experiment [3] (setting [7]) and 4.48 in experiment [4] (setting [8]).

Regarding `Cc1nn(-c2ccccc2)c(C)c1NC(=O)COC(=O)Cn1ccc2ccccc21` [compound 11, 2-((3,5-dimethyl-1-phenyl-1H-pyrazol-4-yl)amino)-2-oxoethyl 2-(1H-indol-1-yl)acetate], the pIC50 in experiment [1] was less than 3.70; in experiment [2] it was less than 3.70; in experiment [3], less than 3.70; in experiment [4], 4.84.

Take `Cc1nn(-c2ccccc2)c(C)c1NC(=O)COC(=O)Cc1cccc(F)c1` [compound 64]: the negative logarithm of the IC50 (pIC50) in experiment [1] (setting [5]) is less than 3.70; in experiment [2] (setting [6]), less than 3.70; in experiment [3] (setting [7]), less than 3.70; in experiment [4] (setting [8]), 4.66.

For `Cc1ccc(NC(=O)COC(=O)Cc2c(C)[nH]c3ccccc23)cc1` [compound 74], the pIC50 was less than 3.70 in experiment [1] (setting [5]), less than 3.70 in experiment [2] (setting [6]), less than 3.70 in experiment [3] (setting [7]) and 5.34 in experiment [4] (setting [8]).

With `Cc1nn(-c2ccccc2)c(C)c1N(C)C(=O)COC(=O)Cc1c(C)[nH]c2ccccc12` [compound 88], the pIC50 is 4.85 in experiment [1] (setting [5]), 5.04 in experiment [2] (setting [6]), 4.74 in experiment [3] (setting [7]) and 5.54 in experiment [4] (setting [8]).

Regarding `Cc1nn(-c2ccccc2)c(C)c1NC(=O)COC(=O)Cn1c(C(F)(F)F)cc2ccccc21` [compound 16], the pIC50 in experiment [1] (setting [5]) is less than 3.70; in experiment [2] (setting [6]) it was less than 3.70; in experiment [3] (setting [7]) it was less than 3.70; in experiment [4] (setting [8]), 6.80.

With `COc1cccc(NC(=O)COC(=O)Cc2c(C)[nH]c3ccccc23)c1` [compound 79], the pIC50 in experiment [1] (setting [5]) is less than 3.70; in experiment [2] (setting [6]), less than 3.70; in experiment [3] (setting [7]) it was less than 3.70; in experiment [4] (setting [8]), 5.22.

Turning to `Cc1ccc(-n2nc(C)c(NC(=O)COC(=O)Cn3c(C(F)(F)F)cc4ccccc43)c2C)cc1` [compound 20], the pIC50 in experiment [1] (setting [5]) is less than 3.70; in experiment [2] (setting [6]) it was less than 3.70; in experiment [3] (setting [7]), less than 3.70; in experiment [4] (setting [8]), 6.62.

In the case of `Cc1nn(-c2ccccc2)c(C)c1NC(=O)COC(=O)C(C)c1c[nH]c2ccccc12` (stereo not shown) [compound 83], the pIC50 in experiment [1] (setting [5]) was less than 3.70; in experiment [2] (setting [6]), less than 3.70; in experiment [3] (setting [7]) it was less than 3.70; in experiment [4] (setting [8]) it was 4.84.

Take `COc1cccc(CC(=O)OCC(=O)Nc2c(C)nn(-c3ccccc3)c2C)c1` [compound 53]: the pIC50 in experiment [1] (setting [5]) was less than 3.70; in experiment [2] (setting [6]), less than 3.70; in experiment [3] (setting [7]), less than 3.70; in experiment [4] (setting [8]), 4.52.

As for `Cc1[nH]c2ccccc2c1CC(=O)OCC(=O)NC(C)(C)C` [compound 67], the pIC50 was less than 3.70 in experiment [1] (setting [5]), less than 3.70 in experiment [2] (setting [6]), less than 3.70 in experiment [3] (setting [7]) and 3.78 in experiment [4] (setting [8]).

For `CC(=O)Nc1cccc(CC(=O)OCC(=O)Nc2c(C)nn(-c3ccccc3)c2C)c1` [compound 47], the pIC50 in experiment [1] (setting [5]) was less than 3.70; in experiment [2] (setting [6]), less than 3.70; in experiment [3] (setting [7]), less than 3.70; in experiment [4] (setting [8]) it was 4.50.

As to `Cc1nn(-c2ccccc2C(F)(F)F)c(C)c1NC(=O)COC(=O)Cn1c(C)cc2ccccc21` [compound 8, 2-((3,5-dimethyl-1-(2-(trifluoromethyl)phenyl)-1H-pyrazol-4-yl)amino)-2-oxoethyl 2-(2-methyl-1H-indol-1-yl)acetate], the pIC50 in experiment [1] is less than 3.70; in experiment [2] it was 3.90; in experiment [3], 3.86; in experiment [4], 6.59.

As for `Cc1cc2ccccc2n1CC(=O)OCC(=O)Nc1ccccc1` [compound 24], the pIC50 in experiment [1] (setting [5]) was less than 4.30; in experiment [2] (setting [6]), less than 4.30; in experiment [3] (setting [7]) it was less than 4.30; in experiment [4] (setting [8]) it was 5.00.

For the compound `Cc1nn(-c2ccc(C#N)cc2)c(C)c1NC(=O)COC(=O)Cn1c(C)cc2ccccc21` [compound 6, 2-((1-(4-cyanophenyl)-3,5-dimethyl-1H-pyrazol-4-yl)amino)-2-oxoethyl 2-(2-methyl-1H-indol-1-yl)acetate], the negative-log IC50 (pIC50) in experiment [1] was less than 3.70; in experiment [2], less than 3.70; in experiment [3] it was less than 3.70; in experiment [4], 6.36.

As to `Cc1nn(-c2ccccc2)c(C)c1NC(=O)COC(=O)Cc1coc2ccccc12` [compound 41], the pIC50 in experiment [1] (setting [5]) was less than 4.30; in experiment [2] (setting [6]), less than 4.30; in experiment [3] (setting [7]) it was less than 4.30; in experiment [4] (setting [8]), 4.50.

Regarding `Cc1cc(C)n(CC(=O)OCC(=O)Nc2c(C)nn(-c3ccccc3)c2C)n1` [compound 17], the pIC50 in experiment [1] (setting [5]) was less than 3.70; in experiment [2] (setting [6]), less than 3.70; in experiment [3] (setting [7]) it was less than 3.70; in experiment [4] (setting [8]) it was 3.96.

Turning to `COc1ccc(NC(=O)COC(=O)Cc2c(C)[nH]c3ccccc23)cc1` [compound 80], the pIC50 in experiment [1] (setting [5]) was less than 3.70; in experiment [2] (setting [6]) it was less than 3.70; in experiment [3] (setting [7]), less than 3.70; in experiment [4] (setting [8]) it was 5.18.

Regarding `Cc1[nH]c2ccccc2c1CC(=O)OCC(=O)Nc1ccc(F)cn1` [compound 72], the pIC50 in experiment [1] (setting [5]) was 4.22; in experiment [2] (setting [6]), 4.30; in experiment [3] (setting [7]), 4.18; in experiment [4] (setting [8]), 4.91.

Turning to `Cc1nn(-c2ccc(C(F)(F)F)cc2)c(C)c1NC(=O)COC(=O)Cn1c(C)cc2ccccc21` [compound 4, 2-((3,5-dimethyl-1-(4-(trifluoromethyl)phenyl)-1H-pyrazol-4-yl)amino)-2-oxoethyl 2-(2-methyl-1H-indol-1-yl)acetate], the pIC50 in experiment [1] is less than 3.70; in experiment [2], less than 3.70; in experiment [3], less than 3.70; in experiment [4], 5.54.

Regarding `Cc1nn(-c2ccc([N+](=O)[O-])cc2)c(C)c1NC(=O)COC(=O)Cn1c(C(F)(F)F)cc2ccccc21` [compound 21], the pIC50 in experiment [1] (setting [5]) was less than 3.70; in experiment [2] (setting [6]) it was less than 3.70; in experiment [3] (setting [7]), less than 3.70; in experiment [4] (setting [8]), 3.95.

As to `Cc1ccc(-n2nc(C)c(NC(=O)COC(=O)Cn3c(C)cc4ccccc43)c2C)cc1` [compound 9, 2-((3,5-dimethyl-1-(p-tolyl)-1H-pyrazol-4-yl)amino)-2-oxoethyl 2-(2-methyl-1H-indol-1-yl)acetate], the pIC50 is 3.71 in experiment [1], 4.17 in experiment [2], less than 3.70 in experiment [3] and 6.57 in experiment [4].

Take `Cc1[nH]c2ccccc2c1CC(=O)OCC(=O)NCc1ncc[nH]1` [compound 85]: the pIC50 in experiment [1] (setting [5]) is less than 3.70; in experiment [2] (setting [6]), less than 3.70; in experiment [3] (setting [7]), 3.80; in experiment [4] (setting [8]), 3.76.

With `Cc1nn(-c2ccccc2)c(C)c1NC(=O)COC(=O)Cc1ccc(Cl)s1` [compound 60], the pIC50 in experiment [1] (setting [5]) was less than 3.70; in experiment [2] (setting [6]), less than 3.70; in experiment [3] (setting [7]), less than 3.70; in experiment [4] (setting [8]), 4.49.

`Cc1nn(-c2ccccc2)c(C)c1NC(=O)COC(=O)Cn1c(C)c(C)c2ccccc21` [compound 15]: the pIC50 was less than 3.70 in experiment [1] (setting [5]), 3.84 in experiment [2] (setting [6]), less than 3.70 in experiment [3] (setting [7]) and 5.33 in experiment [4] (setting [8]).

As for `Cc1nn(-c2ccccc2)c(C)c1NC(=O)COC(=O)Cc1cc(Cl)sc1Cl` [compound 61], the pIC50 is less than 3.70 in experiment [1] (setting [5]), less than 3.70 in experiment [2] (setting [6]), less than 3.70 in experiment [3] (setting [7]) and 5.63 in experiment [4] (setting [8]).

As for `Cc1nn(-c2ccccc2)c(C)c1NC(=O)COC(=O)Cc1cccs1` [compound 59], the pIC50 in experiment [1] (setting [5]) was less than 3.70; in experiment [2] (setting [6]), less than 3.70; in experiment [3] (setting [7]) it was less than 3.70; in experiment [4] (setting [8]), 5.20.

Consider `Cc1nn(-c2ccccc2)c(C)c1NC(=O)COC(=O)Cn1ccc2cccc(Cl)c21` [compound 31], for which the negative logarithm of the IC50 (pIC50) in experiment [1] (setting [5]) was less than 4.30; in experiment [2] (setting [6]), less than 4.30; in experiment [3] (setting [7]) it was less than 4.30; in experiment [4] (setting [8]), 5.92.

Take `Cc1nn(-c2ccccc2)c(C)c1NC(=O)COC(=O)Cn1ccc2cc(Cl)ccc21` [compound 28]: the pIC50 is less than 4.30 in experiment [1] (setting [5]), less than 4.30 in experiment [2] (setting [6]), less than 4.30 in experiment [3] (setting [7]) and 4.59 in experiment [4] (setting [8]).

For the compound `Cc1nn(-c2ccccc2)c(C)c1NC(=O)C(C)OC(=O)Cn1c(C)cc2ccccc21` (racemic) [compound 37], the pIC50 is less than 4.30 in experiment [1] (setting [5]), less than 4.30 in experiment [2] (setting [6]), less than 4.30 in experiment [3] (setting [7]) and 5.83 in experiment [4] (setting [8]).

Regarding `Cc1nn(-c2ccccc2)c(C)c1NC(=O)COC(=O)Cn1c(C(C)C)cc2ccccc21` [compound 32], the pIC50 is less than 4.30 in experiment [1] (setting [5]), less than 4.30 in experiment [2] (setting [6]), less than 4.30 in experiment [3] (setting [7]) and 5.47 in experiment [4] (setting [8]).

Turning to `Cc1nn(-c2ccccc2)c(C)c1NC(=O)COC(=O)Cc1ccccc1C(F)(F)F` [compound 63], the pIC50 in experiment [1] (setting [5]) was less than 3.70; in experiment [2] (setting [6]), less than 3.70; in experiment [3] (setting [7]), less than 3.70; in experiment [4] (setting [8]), 5.63.
